The values below come from patent US6818670B2, “Active ingredient combination having insecticidal and acaricidal characteristics” (priority 1999, dated 2004).

What all share (type): in vivo
Test [1] has as its system green rice leaf-hoppers (Nephotettix cincticeps). As to the kind of experiment: Nephotettix test (rice seedlings, immersion). The conditions noted are these: single active compound, 0.32 ppm. How it is done:
(§1) To produce a suitable preparation of active compound, 1 part by weight of active compound is mixed with the stated amounts of solvent and emulsifier, and the concentrate is diluted with emulsifier-containing water to the desired concentration.
Rice seedlings (Oryza sativa) are treated by immersion in the active compound preparation of the desired concentration and are populated with green rice leaf-hoppers (Nephotettix cincticeps) while the leaves are still moist.
After the desired period, the destruction is determined in %. 100% means that all leafhoppers have been killed; 0% means that none of the leafhoppers have been killed. The kill figures determined form the basis for calculations with Colby's formula.

The test system of test [2] is common spider mite (Tetranychus urticae). As to the kind of experiment: Tetranychus test (OP-resistant/spray treatment, bean plants). The conditions noted are these: single active compound, 0.32 ppm, OP-resistant, spray treatment. How it is done:
OP-resistant/spray Treatment
(§2) To produce a suitable active compound preparation, 1 part by weight of active compound is mixed with the stated amounts of solvent and emulsifier, and the concentrate is diluted with emulsifier-containing water to the desired concentration.
Bean plants (Phaseolus vulgaris) which are severely infested with all stages of the common spider mite (Tetranychus urticae) are sprayed with an active compound preparation of the desired concentration.
After the desired period, the action is determined in %. 100% means that all spider mites have been killed; 0% means that none of the spider mites have been killed. The kill figures determined are calculated using Colby's formula.

Test [3] has as its system diamond-back moth caterpillars (Plutella xylostella). As to the kind of experiment: Plutella test (cabbage leaves, immersion). The conditions noted are these: single active compound, 1.6 ppm. As to the method:
as §2
Cabbage leaves (Brassica oleracea) are treated by immersion in the active compound preparation of the desired concentration and are populated with diamond-back moth caterpillars (Plutella xylostella) while the leaves are still moist.
(§3) After the desired period, the destruction is determined in %. 100% means that all caterpillars have been killed; 0% means that none of the caterpillars have been killed. The kill figures determined are calculated using Colby's formula.

The test system of test [4] is fall army worm caterpillars (Spodoptera exigua). As to the kind of experiment: Spodoptera exigua test (cabbage leaves, immersion). The conditions noted are these: single active compound, 8 ppm. How it is done:
as §1
Cabbage leaves (Brassica oleracea) are treated by immersion in the active compound preparation of the desired concentration and are populated with fall army worm caterpillars (Spodoptera exigua) while the leaves are still moist.
as §3

Test [5] has as its system Heliothis virescens caterpillars. As to the kind of experiment: Heliothis virescens test (soya bean shoots, immersion). The conditions noted are these: single active compound, 0.32 ppm. As to the method:
as §2
Soya bean shoots (Glycine max) are treated by immersion in the active compound preparation of the desired concentration and are populated with Heliothis virescens caterpillars while the leaves are still moist.
as §3

With `CCC(C)(C)C(=O)OC1=C(c2ccc(Cl)cc2Cl)C(=O)OC12CCCCC2` [Ex. (I-b-1)], the “Percentage destruction after 6 days” value in test [1] and in test [4] was 0% in each case. For the same compound, the “Percentage destruction after 14 days” value in test [2] was 0%. Also, the “Percentage destruction after 3 days” value in test [3] and in test [5] was 0% throughout.
`COP(N)(=O)SC` (stereo not shown) [Methamidophos, methamidophos]: in test [2], the “Percentage destruction after 14 days” value was 0%.
In the case of `CC1(C)C(C=C(Cl)Cl)C1C(=O)OC(C#N)c1ccc(F)c(Oc2ccccc2)c1` (stereo not shown) [Betacyfluthrin, betacyfluthrin], the “Percentage destruction after 6 days” value in test [1] is reported as 50%; in test [4], 90%. The “Percentage destruction after 3 days” value in test [3] is 80%; in test [5], 75%.
